Measurements reported in the NIST ThermoML archive (doi:10.1016/j.jct.2011.06.024).
Numbers after ± are expanded uncertainties.

Assay: mn = molality of the nth substance listed, in mol/kg
Settings: 101 kPa, Liquid, Capillary tube (Ostwald / Ubbelohde) method

[Cl-].[K+] [potassium chloride] + O
viscosity (303.15 K, m1 = 0.003209): 0.8063 ± 0.017 mPa·s | viscosity (303.15 K, m1 = 0.003885): 0.8068 ± 0.017 mPa·s | viscosity (303.15 K, m1 = 0.004985): 0.8076 ± 0.017 mPa·s | viscosity (303.15 K, m1 = 0.006959): 0.8088 ± 0.017 mPa·s | viscosity (303.15 K, m1 = 0.008075): 0.8094 ± 0.017 mPa·s | viscosity (303.15 K, m1 = 0.009511): 0.8102 ± 0.017 mPa·s | viscosity (308.15 K, m1 = 0.003209): 0.7279 ± 0.015 mPa·s | viscosity (308.15 K, m1 = 0.003885): 0.7284 ± 0.015 mPa·s | viscosity (308.15 K, m1 = 0.004985): 0.7292 ± 0.015 mPa·s | viscosity (308.15 K, m1 = 0.006959): 0.7304 ± 0.015 mPa·s | viscosity (308.15 K, m1 = 0.008075): 0.7286 ± 0.015 mPa·s | viscosity (308.15 K, m1 = 0.009511): 0.7316 ± 0.015 mPa·s | viscosity (313.15 K, m1 = 0.003209): 0.6616 ± 0.014 mPa·s | viscosity (313.15 K, m1 = 0.003885): 0.6621 ± 0.014 mPa·s | viscosity (313.15 K, m1 = 0.004985): 0.6629 ± 0.014 mPa·s | viscosity (313.15 K, m1 = 0.006959): 0.6641 ± 0.014 mPa·s | viscosity (313.15 K, m1 = 0.008075): 0.6647 ± 0.014 mPa·s | viscosity (313.15 K, m1 = 0.009511): 0.6655 ± 0.014 mPa·s | viscosity (318.15 K, m1 = 0.003209): 0.6045 ± 0.013 mPa·s | viscosity (318.15 K, m1 = 0.003885): 0.6051 ± 0.013 mPa·s | viscosity (318.15 K, m1 = 0.004985): 0.6059 ± 0.013 mPa·s | viscosity (318.15 K, m1 = 0.006959): 0.6071 ± 0.013 mPa·s | viscosity (318.15 K, m1 = 0.008075): 0.6077 ± 0.013 mPa·s | viscosity (318.15 K, m1 = 0.009511): 0.6086 ± 0.013 mPa·s | viscosity (323.15 K, m1 = 0.003209): 0.5552 ± 0.012 mPa·s | viscosity (323.15 K, m1 = 0.003885): 0.5557 ± 0.012 mPa·s | viscosity (323.15 K, m1 = 0.004985): 0.5566 ± 0.012 mPa·s | viscosity (323.15 K, m1 = 0.006959): 0.5578 ± 0.012 mPa·s | viscosity (323.15 K, m1 = 0.008075): 0.5584 ± 0.012 mPa·s | viscosity (323.15 K, m1 = 0.009511): 0.5592 ± 0.012 mPa·s

CCCCCCCCCCCCOS(=O)(=O)[O-].[Na+] [sodium dodecyl sulfate] + O
viscosity (303.15 K, m1 = 0.007): 0.8017 ± 0.017 mPa·s | viscosity (303.15 K, m1 = 0.01): 0.8025 ± 0.017 mPa·s | viscosity (308.15 K, m1 = 0.007): 0.7228 ± 0.015 mPa·s | viscosity (308.15 K, m1 = 0.01): 0.7285 ± 0.015 mPa·s | viscosity (313.15 K, m1 = 0.007): 0.6582 ± 0.014 mPa·s | viscosity (313.15 K, m1 = 0.01): 0.6577 ± 0.014 mPa·s | viscosity (318.15 K, m1 = 0.007): 0.6009 ± 0.013 mPa·s | viscosity (318.15 K, m1 = 0.01): 0.6026 ± 0.013 mPa·s | viscosity (323.15 K, m1 = 0.007): 0.5513 ± 0.012 mPa·s | viscosity (323.15 K, m1 = 0.01): 0.5575 ± 0.012 mPa·s

O=[N+]([O-])[O-].O=[N+]([O-])[O-].[Mg+2] [magnesium nitrate] + O
viscosity (303.15 K, m1 = 0.003029): 0.8036 ± 0.017 mPa·s | viscosity (303.15 K, m1 = 0.004005): 0.8293 ± 0.017 mPa·s | viscosity (303.15 K, m1 = 0.005059): 0.8454 ± 0.018 mPa·s | viscosity (303.15 K, m1 = 0.007003): 0.8685 ± 0.018 mPa·s | viscosity (303.15 K, m1 = 0.008141): 0.8903 ± 0.018 mPa·s | viscosity (303.15 K, m1 = 0.009263): 0.9014 ± 0.019 mPa·s | viscosity (308.15 K, m1 = 0.003029): 0.7327 ± 0.015 mPa·s | viscosity (308.15 K, m1 = 0.004005): 0.751 ± 0.016 mPa·s | viscosity (308.15 K, m1 = 0.005059): 0.7688 ± 0.016 mPa·s | viscosity (308.15 K, m1 = 0.007003): 0.7895 ± 0.017 mPa·s | viscosity (308.15 K, m1 = 0.008141): 0.8097 ± 0.017 mPa·s | viscosity (308.15 K, m1 = 0.009263): 0.8156 ± 0.017 mPa·s | viscosity (313.15 K, m1 = 0.003029): 0.6665 ± 0.014 mPa·s | viscosity (313.15 K, m1 = 0.004005): 0.6847 ± 0.014 mPa·s | viscosity (313.15 K, m1 = 0.005059): 0.7021 ± 0.015 mPa·s | viscosity (313.15 K, m1 = 0.007003): 0.721 ± 0.015 mPa·s | viscosity (313.15 K, m1 = 0.008141): 0.7356 ± 0.015 mPa·s | viscosity (313.15 K, m1 = 0.009263): 0.7458 ± 0.016 mPa·s | viscosity (318.15 K, m1 = 0.003029): 0.6195 ± 0.013 mPa·s | viscosity (318.15 K, m1 = 0.004005): 0.6272 ± 0.013 mPa·s | viscosity (318.15 K, m1 = 0.005059): 0.6449 ± 0.013 mPa·s | viscosity (318.15 K, m1 = 0.007003): 0.6635 ± 0.014 mPa·s | viscosity (318.15 K, m1 = 0.008141): 0.6813 ± 0.014 mPa·s | viscosity (318.15 K, m1 = 0.009263): 0.6958 ± 0.015 mPa·s | viscosity (323.15 K, m1 = 0.003029): 0.5575 ± 0.012 mPa·s | viscosity (323.15 K, m1 = 0.004005): 0.5773 ± 0.012 mPa·s | viscosity (323.15 K, m1 = 0.005059): 0.5927 ± 0.012 mPa·s | viscosity (323.15 K, m1 = 0.007003): 0.6106 ± 0.013 mPa·s | viscosity (323.15 K, m1 = 0.008141): 0.6176 ± 0.013 mPa·s | viscosity (323.15 K, m1 = 0.009263): 0.6305 ± 0.013 mPa·s

[Cl-].[Cl-].[Mg+2] [magnesium chloride] + O
viscosity (303.15 K, m1 = 0.003022): 0.8039 ± 0.017 mPa·s | viscosity (303.15 K, m1 = 0.004): 0.8323 ± 0.017 mPa·s | viscosity (303.15 K, m1 = 0.005): 0.8483 ± 0.018 mPa·s | viscosity (303.15 K, m1 = 0.007): 0.8693 ± 0.018 mPa·s | viscosity (303.15 K, m1 = 0.007995): 0.8885 ± 0.018 mPa·s | viscosity (303.15 K, m1 = 0.008994): 0.9112 ± 0.019 mPa·s | viscosity (308.15 K, m1 = 0.003022): 0.7343 ± 0.015 mPa·s | viscosity (308.15 K, m1 = 0.004): 0.7545 ± 0.016 mPa·s | viscosity (308.15 K, m1 = 0.005): 0.7723 ± 0.016 mPa·s | viscosity (308.15 K, m1 = 0.007): 0.7896 ± 0.017 mPa·s | viscosity (308.15 K, m1 = 0.007995): 0.8071 ± 0.017 mPa·s | viscosity (308.15 K, m1 = 0.008994): 0.8198 ± 0.017 mPa·s | viscosity (313.15 K, m1 = 0.003022): 0.6675 ± 0.014 mPa·s | viscosity (313.15 K, m1 = 0.004): 0.6865 ± 0.014 mPa·s | viscosity (313.15 K, m1 = 0.005): 0.7031 ± 0.015 mPa·s | viscosity (313.15 K, m1 = 0.007): 0.7195 ± 0.015 mPa·s | viscosity (313.15 K, m1 = 0.007995): 0.7366 ± 0.015 mPa·s | viscosity (313.15 K, m1 = 0.008994): 0.7601 ± 0.016 mPa·s | viscosity (318.15 K, m1 = 0.003022): 0.6213 ± 0.013 mPa·s | viscosity (318.15 K, m1 = 0.004): 0.6301 ± 0.013 mPa·s | viscosity (318.15 K, m1 = 0.005): 0.6466 ± 0.013 mPa·s | viscosity (318.15 K, m1 = 0.007): 0.6648 ± 0.014 mPa·s | viscosity (318.15 K, m1 = 0.007995): 0.6804 ± 0.014 mPa·s | viscosity (318.15 K, m1 = 0.008994): 0.6989 ± 0.015 mPa·s | viscosity (323.15 K, m1 = 0.003022): 0.5775 ± 0.012 mPa·s | viscosity (323.15 K, m1 = 0.004): 0.5975 ± 0.013 mPa·s | viscosity (323.15 K, m1 = 0.005): 0.6196 ± 0.013 mPa·s | viscosity (323.15 K, m1 = 0.007): 0.6244 ± 0.013 mPa·s | viscosity (323.15 K, m1 = 0.007995): 0.6481 ± 0.013 mPa·s | viscosity (323.15 K, m1 = 0.008994): 0.6697 ± 0.014 mPa·s

O=[N+]([O-])[O-].[K+] [potassium nitrate] + O
viscosity (303.15 K, m1 = 0.003067): 0.8152 ± 0.017 mPa·s | viscosity (303.15 K, m1 = 0.003997): 0.8175 ± 0.017 mPa·s | viscosity (303.15 K, m1 = 0.005019): 0.819 ± 0.017 mPa·s | viscosity (303.15 K, m1 = 0.006997): 0.8217 ± 0.017 mPa·s | viscosity (303.15 K, m1 = 0.008615): 0.8244 ± 0.017 mPa·s | viscosity (303.15 K, m1 = 0.01033): 0.8263 ± 0.017 mPa·s | viscosity (308.15 K, m1 = 0.003067): 0.7365 ± 0.015 mPa·s | viscosity (308.15 K, m1 = 0.003997): 0.7382 ± 0.015 mPa·s | viscosity (308.15 K, m1 = 0.005019): 0.731 ± 0.015 mPa·s | viscosity (308.15 K, m1 = 0.006997): 0.7433 ± 0.015 mPa·s | viscosity (308.15 K, m1 = 0.008615): 0.7449 ± 0.015 mPa·s | viscosity (308.15 K, m1 = 0.01033): 0.7472 ± 0.016 mPa·s | viscosity (313.15 K, m1 = 0.003067): 0.6691 ± 0.014 mPa·s | viscosity (313.15 K, m1 = 0.003997): 0.6705 ± 0.014 mPa·s | viscosity (313.15 K, m1 = 0.005019): 0.6722 ± 0.014 mPa·s | viscosity (313.15 K, m1 = 0.006997): 0.6752 ± 0.014 mPa·s | viscosity (313.15 K, m1 = 0.008615): 0.6775 ± 0.014 mPa·s | viscosity (313.15 K, m1 = 0.01033): 0.6782 ± 0.014 mPa·s | viscosity (318.15 K, m1 = 0.003067): 0.6139 ± 0.013 mPa·s | viscosity (318.15 K, m1 = 0.003997): 0.6157 ± 0.013 mPa·s | viscosity (318.15 K, m1 = 0.005019): 0.6178 ± 0.013 mPa·s | viscosity (318.15 K, m1 = 0.006997): 0.621 ± 0.013 mPa·s | viscosity (318.15 K, m1 = 0.008615): 0.6231 ± 0.013 mPa·s | viscosity (318.15 K, m1 = 0.01033): 0.6253 ± 0.013 mPa·s | viscosity (323.15 K, m1 = 0.003067): 0.5658 ± 0.012 mPa·s | viscosity (323.15 K, m1 = 0.003997): 0.568 ± 0.012 mPa·s | viscosity (323.15 K, m1 = 0.005019): 0.5701 ± 0.012 mPa·s | viscosity (323.15 K, m1 = 0.006997): 0.5737 ± 0.012 mPa·s | viscosity (323.15 K, m1 = 0.008615): 0.5761 ± 0.012 mPa·s | viscosity (323.15 K, m1 = 0.01033): 0.5785 ± 0.012 mPa·s
